Seven molecules from patent US20090291968A1, “SUBSTITUTED INDAZOLE DERIVATIVES, THEIR MANUFACTURE AND USE AS PHARMACEUTICAL AGENTS” (priority 2006, published 2009) can be followed below.

One may read the pIC50 as the negative decadic logarithm of the IC50, by convention in mol/L.

pIC50: −log10 of the molar value.

For experiment [1], the system named is HCT 116 cells. Briefly: CellTiter-Glo assay in HCT 116 cells (cell viability). The experiment is classed as cell-based. Conditions: 120 h; HCT 116 human colon carcinoma cells, 5 days incubation, CellTiter-Glo luminescence. The method, then:
The CellTiter-Glo™ Luminescent Cell Viability Assay (Promega) is a homogeneous method of determining the number of viable cells in culture based on quantitation of the ATP present, which signals the presence of metabolically active cells.
HCT 116 cells (human colon carcinoma, ATCC-No. CCl-247) were cultivated in RPMI 1640 medium with GlutaMAX™ I (Invitrogen, Cat-No. 61870-010), 2,5% Fetal Calf Serum (FCS, Sigma Cat-No. F4135 (FBS)); 100 Units/ml penicillin/100 μg/ml streptomycin (=Pen/Strep from Invitrogen Cat. No. 15140). For the assay the cells were seeded in 384 well plates, 1000 cells per well, in the same medium. The next day the test compounds were added in various concentrations ranging from 30 μM to 0.0015 μM (10 concentrations, 1:3 diluted). After 5 days the CellTiter-Glo™ assay was done according to the instructions of the manufacturer (CellTiter-Glo™ Luminescent Cell Viability Assay, from Promega). In brief: the cell-plate was equilibrated to room temperature for approximately 30 minutes and than the CellTiter-Glo™ reagent was added. The contents were carefully mixed for 15 minutes to induce cell lysis. After 45 minutes the luminescent signal was measured in Victor 2, (scanning multiwell spectrophotometer, Wallac).
1st. Day: • Medium: RPMI 1640 with GlutaMAX™ I (Invitrogen, Cat-Nr. 61870), 5% FCS (Sigma Cat.-No. F4135), Pen/Strep (Invitrogen, Cat No. 15140). • HCT116 (ATCC-No. CCl-247): 1000 cells in 60 μl per well of 384 well plate (Greiner 781098, μClear-plate white) • After seeding incubate plates 24 h at 37° C., 5% CO2 2nd. Day: Induction (Treatment with Compounds, 10 Concentrations):
In order to achieve a final concentration of 30 μM as highest concentration 3.5 μl of 10 mM compound stock solution were added directly to 163 μl media. Then step e) of the dilution procedure described below, was followed.
In order to achieve the second highest to the lowest concentrations, a serial dilution with dilution steps of 1:3 was followed according to the procedure (a-e) as described here below: • a) for the second highest concentration add 10 μl of 10 mM stock solution of compound to 20 μl dimethylsulfoxide (DMSO) • b) dilute 8×1:3 (always 10 μl to 20 μl DMSO) in this DMSO dilution row (results in 9 wells with concentrations from 3333.3 μM to 0.51 μM) • c) dilute each concentration 1:47.6 (3.5 μl compound dilution to 163 μl media) • e) add 10 μl of every concentration to 60 μl media in the cell plate resulting in final concentration of DMSO: 0.3% in every well and resulting in 10 final concentration of compounds ranging from 30 μM to 0.0015 μM. • Each compound is tested in triplicate. • Incubate 120 h (5 days) at 37° C., 5% CO2
• Add 30 μl CellTiter-Glo™ Reagent (prepared from CellTiter-Glo™ Buffer and CellTiter-Glo™ Substrate (lyophilized) purchased from Promega) per well, • shake 15 minutes at room temperature • incubate further 45 minutes at room temperature without shaking
• Victor 2 scanning multiwell spectrophotometer (Wallac), Luminescence mode (0.5 sec/read, 477 nm) • Determine IC50 using a non-linear curve fit (XLfit software (ID Business Solution Ltd., Guilford, Surrey, UK))

Experiment [2] has as its target T1, Aurora A kinase (Homo sapiens, UniProt O14965).
T1 sequence (O14965 1-403 T288D): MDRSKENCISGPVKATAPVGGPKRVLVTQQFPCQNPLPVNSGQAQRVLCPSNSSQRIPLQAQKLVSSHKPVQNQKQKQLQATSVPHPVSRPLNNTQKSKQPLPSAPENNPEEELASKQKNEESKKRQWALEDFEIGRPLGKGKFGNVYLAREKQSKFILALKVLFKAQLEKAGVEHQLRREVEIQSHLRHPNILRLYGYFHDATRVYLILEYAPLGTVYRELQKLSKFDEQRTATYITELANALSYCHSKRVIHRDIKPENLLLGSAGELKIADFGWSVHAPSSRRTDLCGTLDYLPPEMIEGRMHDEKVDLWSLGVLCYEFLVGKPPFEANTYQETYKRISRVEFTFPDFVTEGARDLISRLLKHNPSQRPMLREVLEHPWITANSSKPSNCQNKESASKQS
As to the kind of experiment: IC50 determination for inhibitors of Aurora A (ELISA-type kinase assay, GST-Histone H3 substrate). It is filed as biochemical. The note with it: mutant Aurora A kinase, 30 μM ATP, 40 minutes, read-out: IC50 Aurora A kinase inhibition. How it is done: Aurora A is a serine threonine kinase involved in spindle assembly and chromosome segregation.
The assay is a typically ELISA-type assay where substrate (GST-Histone H3) is coupled to the assay-plate and is phosphorylated by the kinase. Phosphorylation is detected by a mouse anti-Phosphopeptid mAb and an HRP-labeled anti-mouse pAb. The assay is validated for IC50-determination.
Kinase activities were measured by Enzyme-Linked Immunosorbent Assay (ELISA): Maxisorp 384-well plates (Nunc) were coated with recombinant fusion protein comprising residues 1-15 of HistoneH3 fused to the N-terminus of Glutathione-S-Transferase. Plates were then blocked with a solution of 1 mg/mL I-block (Tropix cat# T2015—highly purified form of casein) in phosphate-buffered saline. Kinase reactions were carried out in the wells of the ELISA plate by combining an appropriate amount of mutant Aurora A kinase with test compound and 30 μM ATP. The reaction buffer was 10× Kinase Buffer (Cell Signaling cat #9802) supplemented with 1 μg/mL I-block. Reactions were stopped after 40 minutes by addition of 25 mM EDTA. After washing, substrate phosphorylation was detected by addition of anti-phospho-Histone H3 (Ser 10) 6G3 mAb (Cell Signaling cat #9706) and sheep anti-mouse pAb-HRP (Amersham cat# NA931V), followed by colorimetric development with TMB (3,3′,5,5′-tetramethylbenzidine from Kirkegaard & Perry Laboratories). After readout of the absorbance, IC50 values were calculated using a non-linear curve fit (XLfit software (ID Business Solution Ltd., Guilford, Surrey, UK)).
On the technique in general: ELISA stands for enzyme-linked immunosorbent assay.

Turning to `CCN1C(=O)C(C)(C)c2cc3nc(-c4n[nH]c5cc(C#Cc6ccccc6)ccc45)[nH]c3cc21` [Example 38, 5-Ethyl-7,7-dimethyl-2-(6-phenylethynyl-1H-indazol-3-yl)-5,7-dihydro-3H-imidazo[4,5-f]indol-6-one], the negative-log IC50 (pIC50) in experiment [1] was 5.82 to 7.60; in experiment [2], 8.05.
On to `CCN1C(=O)C(C)(C)c2cc3nc(-c4n[nH]c5cc(-c6ccsc6)ccc45)[nH]c3cc21` [Example 4, 5-Ethyl-7,7-dimethyl-2-(6-thiophen-3-yl-1H-indazol-3-yl)-5,7-dihydro-3H-imidazo[4,5-f]indol-6-one], for which the negative-log IC50 (pIC50) in experiment [1] is 5.82 to 7.60; in experiment [2], 7.66.
For `CCN1C(=O)C(C)(C)c2cc3nc(-c4n[nH]c5cc(/C=C/C6CCCCC6)ccc45)[nH]c3cc21` [Example 19, 2-[6-((E)-2-Cyclohexyl-vinyl)-1H-indazol-3-yl]-5-ethyl-7,7-dimethyl-5,7-dihydro-3H-imidazo[4,5-f]indol-6-one], in that order: 5.82 to 7.60 and 7.24.
Consider `CCN1C(=O)C(C)(C)c2cc3nc(-c4n[nH]c5cc(/C=C/c6ccc(F)cc6)ccc45)[nH]c3cc21` [Example 6, 5-Ethyl-2-{6-[(E)-2-(4-fluoro-phenyl)-vinyl]-1H-indazol-3-yl}-7,7-dimethyl-5,7-dihydro-3H-imidazo[4,5-f]indol-6-one], for which the negative-log IC50 (pIC50) was 5.82 to 7.60 in experiment [1] and 7.46 in experiment [2].
For the molecule `CCN1C(=O)C(C)(C)c2cc3nc(-c4n[nH]c5ccc(-c6nc[nH]n6)cc45)[nH]c3cc21` [Example 1, 5-Ethyl-7,7-dimethyl-2-[5-(1H-[1,2,4]triazol-3-yl)-1H-indazol-3-yl]-5,7-dihydro-3H-imidazo[4,5-f]indol-6-one], the negative-log IC50 (pIC50) in experiment [1] is 5.82 to 7.60; in experiment [2] it was 8.70.
Take `CCN1C(=O)C(C)(C)c2cc3nc(-c4n[nH]c5cc(/C=C/c6ccc(C(F)(F)F)cc6)ccc45)[nH]c3cc21` [Example 11, 5-Ethyl-7,7-dimethyl-2-{6-[(E)-2-(4-trifluoromethyl-phenyl)-vinyl]-1H-indazol-3-yl}-5,7-dihydro-3H-imidazo[4,5-f]indol-6-one]: the pIC50 in experiment [2] is 7.72.
For the molecule `CCN1C(=O)C(C)(C)c2cc3nc(-c4n[nH]c5ccc(-c6cccc(N(C)C)c6)cc45)[nH]c3cc21` [Example 29, 2-[5-(3-Dimethylamino-phenyl)-1H-indazol-3-yl]-5-ethyl-7,7-dimethyl-5,7-dihydro-3H-imidazo[4,5-f]indol-6-one], the negative-log IC50 (pIC50) is 5.82 to 7.60 in experiment [1] and 8.22 in experiment [2].
